Source: PubChem BioAssay AID1963979 (Molecular Pharmacology Branch, DTP, NCI, 2024)
Several values for one entry are separate records, joined by “and”; a condition that tells them apart may be missing. Equal entries are not always repeated.

System: 361931-004-R-J1-PDC multicell spheroid viability
Experiment: Anticancer human tumor 361931-004-R-J1-PDC patient-derived colon adenocarcinoma cell line growth inhibition [PI3K]
Details: for viability, T/C: stronger effect = lower value
Outline: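 Combination activity was assessed by viability in multicellular tumor spheroids carrying HUVEC and MSC components. Agents were tested with PI3K inhibitors from a Cmax-based top dose (or 10 microM) downward in half-log increments.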

[1] = curve of first compound, second compound 0.00316 µM
[2] = curve of first compound, second compound 0.01 µM
[3] = curve of first compound, second compound 0.0316 µM
[4] = curve of first compound, second compound 0.1 µM
[5] = curve of first compound, second compound 0.316 µM
[6] = curve of first compound, second compound 1 µM
[7] = second compound 0.00316 µM, first compound 0.00316 µM
[8] = second compound 0.00316 µM, first compound 0.01 µM
[9] = second compound 0.00316 µM, first compound 0.0316 µM
[10] = second compound 0.00316 µM, first compound 0.1 µM
[11] = second compound 0.01 µM, first compound 0.00316 µM
[12] = second compound 0.01 µM, first compound 0.01 µM
[13] = second compound 0.01 µM, first compound 0.0316 µM
[14] = second compound 0.01 µM, first compound 0.1 µM
[15] = second compound 0.0316 µM, first compound 0.00316 µM
[16] = second compound 0.0316 µM, first compound 0.01 µM
[17] = second compound 0.0316 µM, first compound 0.0316 µM
[18] = second compound 0.0316 µM, first compound 0.1 µM
[19] = second compound 0.1 µM, first compound 0.00316 µM
[20] = second compound 0.1 µM, first compound 0.01 µM
[21] = second compound 0.1 µM, first compound 0.0316 µM
[22] = second compound 0.1 µM, first compound 0.1 µM
[23] = second compound 0.316 µM, first compound 0.00316 µM
[24] = second compound 0.316 µM, first compound 0.01 µM
[25] = second compound 0.316 µM, first compound 0.0316 µM
[26] = second compound 0.316 µM, first compound 0.1 µM
[27] = second compound 1 µM, first compound 0.00316 µM
[28] = second compound 1 µM, first compound 0.01 µM
[29] = second compound 1 µM, first compound 0.0316 µM
[30] = second compound 1 µM, first compound 0.1 µM
[31] = curve of first compound, second compound 3.16 µM
[32] = curve of first compound, second compound 10 µM
[33] = second compound 0.0316 µM, first compound 0.316 µM
[34] = second compound 0.0316 µM, first compound 1 µM
[35] = second compound 0.0316 µM, first compound 3.16 µM
[36] = second compound 0.0316 µM, first compound 10 µM
[37] = second compound 0.1 µM, first compound 0.316 µM
[38] = second compound 0.1 µM, first compound 1 µM
[39] = second compound 0.1 µM, first compound 3.16 µM
[40] = second compound 0.1 µM, first compound 10 µM
[41] = second compound 0.316 µM, first compound 0.316 µM
[42] = second compound 0.316 µM, first compound 1 µM
[43] = second compound 0.316 µM, first compound 3.16 µM
[44] = second compound 0.316 µM, first compound 10 µM
[45] = second compound 1 µM, first compound 0.316 µM
[46] = second compound 1 µM, first compound 1 µM
[47] = second compound 1 µM, first compound 3.16 µM
[48] = second compound 1 µM, first compound 10 µM
[49] = second compound 3.16 µM, first compound 0.0316 µM
[50] = second compound 3.16 µM, first compound 0.1 µM
[51] = second compound 3.16 µM, first compound 0.316 µM
[52] = second compound 3.16 µM, first compound 1 µM
[53] = second compound 3.16 µM, first compound 3.16 µM
[54] = second compound 3.16 µM, first compound 10 µM
[55] = second compound 10 µM, first compound 0.0316 µM
[56] = second compound 10 µM, first compound 0.1 µM
[57] = second compound 10 µM, first compound 0.316 µM
[58] = second compound 10 µM, first compound 1 µM
[59] = second compound 10 µM, first compound 3.16 µM
[60] = second compound 10 µM, first compound 10 µM
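Further: spheroids exposed to agents for seven days before readout.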

CC(=O)c1c(C)c2cnc(Nc3ccc(N4CCNCC4)cn3)nc2n(C2CCCC2)c1=O + CC(Nc1ccc2c(c1)OCCn1cc(N3C(=O)OCC3C(F)F)nc1-2)C(N)=O
IC50 [1]: > 100 nM | IC50 [2]: > 100 nM | IC50 [3]: > 100 nM | IC50 [4]: > 100 nM | IC50 [5]: > 100 nM | IC50 [6]: 91.6 nM | viability, T/C (second compound 0.00316 µM, first compound 0.000316 µM): 97.9% | viability, T/C (second compound 0.00316 µM, first compound 0.001 µM): 106% | viability, T/C [7]: 105% | viability, T/C [8]: 107% | viability, T/C [9]: 99.4% | viability, T/C [10]: 73.7% | viability, T/C (second compound 0.01 µM, first compound 0.000316 µM): 111% | viability, T/C (second compound 0.01 µM, first compound 0.001 µM): 104% | viability, T/C [11]: 104% | viability, T/C [12]: 99.8% | viability, T/C [13]: 99.1% | viability, T/C [14]: 76.8% | viability, T/C (second compound 0.0316 µM, first compound 0.000316 µM): 102% | viability, T/C (second compound 0.0316 µM, first compound 0.001 µM): 102% | viability, T/C [15]: 93.8% | viability, T/C [16]: 86.8% | viability, T/C [17]: 91% | viability, T/C [18]: 82.6% | viability, T/C (second compound 0.1 µM, first compound 0.000316 µM): 98.8% | viability, T/C (second compound 0.1 µM, first compound 0.001 µM): 87.2% | viability, T/C [19]: 86.1% | viability, T/C [20]: 89% | viability, T/C [21]: 90.4% | viability, T/C [22]: 63.8% | viability, T/C (second compound 0.316 µM, first compound 0.000316 µM): 96.5% | viability, T/C (second compound 0.316 µM, first compound 0.001 µM): 87.1% | viability, T/C [23]: 90.8% | viability, T/C [24]: 77.6% | viability, T/C [25]: 81.4% | viability, T/C [26]: 61.9% | viability, T/C (second compound 1 µM, first compound 0.000316 µM): 86.6% | viability, T/C (second compound 1 µM, first compound 0.001 µM): 78.5% | viability, T/C [27]: 75% | viability, T/C [28]: 85.1% | viability, T/C [29]: 64.3% | viability, T/C [30]: 48.9%

Cn1cnc2c(F)c(Nc3ccc(Br)cc3Cl)c(C(=O)NOCCO)cc21
viability, T/C (compound 0.00949 µM): 97.8% [middle of 4 runs] | viability, T/C (compound 0.03 µM): 92.1% [middle of 4 runs] | viability, T/C (compound 0.0949 µM): 90% [middle of 4 runs] | viability, T/C (compound 0.3 µM): 86.4% [middle of 4 runs] | viability, T/C (compound 0.949 µM): 84% [middle of 4 runs] | viability, T/C (compound 3 µM): 62.8% [middle of 4 runs] | IC50 (curve of compound): 2440 nM and > 3000 nM and 2720 nM

CC1(C)CCC(CN2CCN(c3ccc(C(=O)NS(=O)(=O)c4ccc(NCC5CCOCC5)c([N+](=O)[O-])c4)c(Oc4cnc5[nH]ccc5c4)c3)CC2)=C(c2ccc(Cl)cc2)C1 + Cc1nc(NC(=O)N2CCCC2C(N)=O)sc1-c1ccnc(C(C)(C)C(F)(F)F)c1
IC50 [3]: 4140 nM | IC50 [4]: 4300 nM | IC50 [5]: 4190 nM | IC50 [6]: 3890 nM | IC50 [31]: 2710 nM | IC50 [32]: 1520 nM | viability, T/C [17]: 108% | viability, T/C [18]: 100% | viability, T/C [33]: 111% | viability, T/C [34]: 99.7% | viability, T/C [35]: 64.9% | viability, T/C [36]: 1.71% | viability, T/C [21]: 106% | viability, T/C [22]: 100% | viability, T/C [37]: 108% | viability, T/C [38]: 99.1% | viability, T/C [39]: 67.8% | viability, T/C [40]: 1.27% | viability, T/C [25]: 104% | viability, T/C [26]: 107% | viability, T/C [41]: 96% | viability, T/C [42]: 93% | viability, T/C [43]: 65.6% | viability, T/C [44]: 1.32% | viability, T/C [29]: 87.1% | viability, T/C [30]: 102% | viability, T/C [45]: 84.8% | viability, T/C [46]: 83.1% | viability, T/C [47]: 61.2% | viability, T/C [48]: 0.97% | viability, T/C [49]: 85.7% | viability, T/C [50]: 77% | viability, T/C [51]: 78.2% | viability, T/C [52]: 80% | viability, T/C [53]: 45.4% | viability, T/C [54]: 1.07% | viability, T/C [55]: 65.1% | viability, T/C [56]: 67.7% | viability, T/C [57]: 60.3% | viability, T/C [58]: 62.2% | viability, T/C [59]: 29% | viability, T/C [60]: 1.43%

CCN1CCN(Cc2ccc(Nc3ncc(F)c(-c4cc(F)c5nc(C)n(C(C)C)c5c4)n3)nc2)CC1 + CC(Nc1ccc2c(c1)OCCn1cc(N3C(=O)OCC3C(F)F)nc1-2)C(N)=O
IC50 [1]: > 1000 nM | IC50 [2]: > 1000 nM | IC50 [3]: > 1000 nM | IC50 [4]: 504 nM | IC50 [5]: 142 nM | IC50 [6]: 146 nM | viability, T/C [7]: 96.2% | viability, T/C [8]: 100% | viability, T/C [9]: 91.2% | viability, T/C [10]: 86.9% | viability, T/C (second compound 0.00316 µM, first compound 0.316 µM): 86.2% | viability, T/C (second compound 0.00316 µM, first compound 1 µM): 64.3% | viability, T/C [11]: 104% | viability, T/C [12]: 99.1% | viability, T/C [13]: 77.5% | viability, T/C [14]: 81.4% | viability, T/C (second compound 0.01 µM, first compound 0.316 µM): 86.1% | viability, T/C (second compound 0.01 µM, first compound 1 µM): 56.7% | viability, T/C [15]: 91.4% | viability, T/C [16]: 98.2% | viability, T/C [17]: 76.2% | viability, T/C [18]: 80% | viability, T/C [33]: 68% | viability, T/C [34]: 55.4% | viability, T/C [19]: 90% | viability, T/C [20]: 87.6% | viability, T/C [21]: 71.7% | viability, T/C [22]: 63.4% | viability, T/C [37]: 67.2% | viability, T/C [38]: 36.4% | viability, T/C [23]: 75.7% | viability, T/C [24]: 86.4% | viability, T/C [25]: 62.8% | viability, T/C [26]: 55% | viability, T/C [41]: 42.5% | viability, T/C [42]: 33.1% | viability, T/C [27]: 75.4% | viability, T/C [28]: 75.1% | viability, T/C [29]: 54.4% | viability, T/C [30]: 56.1% | viability, T/C [45]: 45% | viability, T/C [46]: 32.2%

Cn1ncc(Cl)c1-c1cc(C(=O)NC(CN)Cc2cccc(F)c2)sc1Cl (stereo unspecified) + CC(Nc1ncnc2nc[nH]c12)c1cc2cccc(Cl)c2c(=O)n1-c1ccccc1
IC50 [3]: 2940 nM | IC50 [4]: 3340 nM | IC50 [5]: 2170 nM | IC50 [6]: 2550 nM | IC50 [31]: 2210 nM | IC50 [32]: 2490 nM | viability, T/C [17]: 95.2% | viability, T/C [18]: 98.3% | viability, T/C [33]: 88.7% | viability, T/C [34]: 70.6% | viability, T/C [35]: 49.7% | viability, T/C [36]: 32.1% | viability, T/C [21]: 103% | viability, T/C [22]: 104% | viability, T/C [37]: 92.7% | viability, T/C [38]: 77.5% | viability, T/C [39]: 50.8% | viability, T/C [40]: 30.9% | viability, T/C [25]: 106% | viability, T/C [26]: 108% | viability, T/C [41]: 90.8% | viability, T/C [42]: 60.4% | viability, T/C [43]: 48.5% | viability, T/C [44]: 27.1% | viability, T/C [29]: 111% | viability, T/C [30]: 101% | viability, T/C [45]: 90.1% | viability, T/C [46]: 61.8% | viability, T/C [47]: 49.9% | viability, T/C [48]: 31% | viability, T/C [49]: 105% | viability, T/C [50]: 105% | viability, T/C [51]: 89.4% | viability, T/C [52]: 65.4% | viability, T/C [53]: 44.4% | viability, T/C [54]: 24.5% | viability, T/C [55]: 97.2% | viability, T/C [56]: 95.8% | viability, T/C [57]: 89.5% | viability, T/C [58]: 75.4% | viability, T/C [59]: 43% | viability, T/C [60]: 25%

Cc1nc(NC(=O)N2CCCC2C(N)=O)sc1-c1ccnc(C(C)(C)C(F)(F)F)c1 (stereo unspecified)
viability, T/C (compound 0.0316 µM): 101% [middle of 8 runs] | viability, T/C (compound 0.316 µM): 97.9% [middle of 8 runs] | viability, T/C (compound 1 µM): 91.2% [middle of 8 runs] | viability, T/C (compound 3.16 µM): 87.2% [middle of 8 runs] | viability, T/C (compound 10 µM): 73.8% [middle of 8 runs] | IC50 (compound alone, run of 05/08/2023): > 10000 nM
